This is an account of results in paper PMC7377239, “Cardiovascular Effects of Polychlorinated Biphenyls and Their Major Metabolites” (Environmental Health Perspectives, 2020).

Where a name gives a salt, the structure may show the parent alone. Read-outs that look alike come from different tables or passages of the source.

In one experiment the test system is HUVECs. The experiment in a line: High-content imaging cytotoxicity in HUVECs, 24 h. In kind it is cell-based, human. The following applies: Homo sapiens, HUVEC, 24 h, HUVEC, 24 hr. In a few lines:
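Confluent HUVEC monolayers, passages 1–5, received test chemicals for 24 h. Cytotoxicity was scored from triple-stain high-content images, with PODs defined by a one-SD deviation from 0.5% DMSO vehicle controls.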

The subject of experiment [1] is iCell endothelial cells (human iPSC-derived ECs). Description: High-content imaging cytotoxicity in iCell endothelial cells, 24 h. In kind it is cell-based. Particulars: Homo sapiens, Endothelial cell, endothelial cells (endo), 24 hr. In a few lines: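 Readouts were vehicle-normalised and fitted to a four-parameter logistic model. POD was set at one SD beyond 0.5% DMSO control means, and 100 µM was assigned when no response was seen. Cells were monolayers of iCell endothelial cells imaged after 24 h compound exposure using nuclear, mitochondrial and calcein dyes.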

[2] abbreviates: cyto, read-out: POD huvec.cyto.24hr.
The mark [3] stands for this setting: mito, read-out: POD huvec.mito.24hr.
The mark [4] stands for this setting: mitoint, read-out: POD huvec.mitoint.24hr.
Setting [5] is: nma, read-out: POD huvec.nma.24hr.
Where [6] appears, read: tc, read-out: POD huvec.tc.24hr.
Setting [7] is: cyto, read-out: POD endo.cyto.24hr.
Setting [8] is: mito, read-out: POD endo.mito.24hr.
Where [9] appears, read: mitoint, read-out: POD endo.mitoint.24hr.
The mark [10] stands for this setting: nma, read-out: POD endo.nma.24hr.

On to `COc1ccc(-c2ccc(Cl)cc2)cc1` [4'-OMe-PCB 3, 4′-methoxy-4-chlorobiphenyl], for which the minimal effective concentration in the experiment on HUVECs (setting [2]) is 8.6 µM; in the experiment on HUVECs (setting [3]) it was 5.97 µM; in the experiment on HUVECs (setting [4]) it was 32 µM; with HUVECs (setting [5]) it was 1.41 µM; with HUVECs (setting [6]), 8.6 µM; in experiment [1] (setting [7]), 100 µM. For the same molecule, the minimal effective concentration was found to be 100 µM in experiment [1] (setting [8]); 20.5 µM in experiment [1] (setting [9]); 100 µM in experiment [1] (setting [10]); 100 µM in experiment [1] (tc, read-out: POD endo.tc.24hr).

On to `O=S(=O)(O)Oc1ccc(-c2ccc(Cl)cc2)cc1` [4'-PCB 3 sulfate], for which the minimal effective concentration (in the experiment on HUVECs (setting [2]); with HUVECs (setting [3]); in the experiment with HUVECs (setting [4]); in the experiment with HUVECs (setting [5]); in the experiment on HUVECs (setting [6]); in experiment [1] (setting [7])) was 100 µM each time. In addition, the minimal effective concentration was 100 µM in experiment [1] (setting [8]); 100 µM in experiment [1] (setting [9]); 100 µM in experiment [1] (setting [10]); 100 µM in experiment [1] (tc, read-out: POD endo.tc.24hr).
